From patent publication US4329341A, “5-Phenyl-1,3,4,5-tetrahydro-2H-1,4-benzodiazepin-2-ones, and pharmaceutical compositions containing them” (Richter Gedeon Vegyeszeti Gyar Rt, priority 1980, dated 1982)

Experiments:
[1] = system: NADPH-depending multifunctional oxydase enzyme system of the liver; experiment: Hexobarbital-induced sleeping time (measurement of enzyme inducing activity); type: in vivo, CFLP male mice; conditions: for Hexobarbital-sleeping time, 1-hour pretreatment, average ± SE / Hexobarbital-sleeping time, 1-hour pretreatment, Δ% (percentage change related to the control) / Hexobarbital-sleeping time, 24-hour pretreatment, Δ% (percentage change related to the control) / Hexobarbital-sleeping time, 24-hour pretreatment, average ± SE: 40 mg./kg. p.o., hexobarbital 60 mg./kg. i.v.; for Hexobarbital-sleeping time, 1-hour pretreatment, average ± SE: control 35 ± 2.38; for Hexobarbital-sleeping time, 1-hour pretreatment, Δ% (percentage change related to the control) / Hexobarbital-sleeping time, 24-hour pretreatment, average ± SE: x: p < 0.001 compared to the control; for Hexobarbital-sleeping time, 24-hour pretreatment, average ± SE: control 34 ± 2.60
From the text: The biological activity and duration of activity of different endogenic and exogenic compounds are greatly influenced by the activity of the NADPH- (nicotinic acid amide-adenine-dinucleotide phosphate-) depending multifunctional oxydase enzyme system of the liver. There are numerous compounds known in the art, showing various pharmacological activities, which are capable of increasing or inducing the activity of the metabolising, multifunctional oxydase enzyme system of the liver [see e.g. Sher, S.P.: Toxicol. appl. Pharmacol. 18, 780 /1971/; G. J. Mannering: in A. Burger's Selected Pharmacological Testing Methods, 51-119 S., Marcel Dekker Inc., New York /1968/]. […] Therefore phenobarbital can successfully be used in the treatment of Czigler-Najjar and Cilbert syndroms and neonatal hyperbilirubinemia, though due to its hypnotic-sedative effect the inducing activity of this compound is not optimal [Vessel and J. E. Page: J. Clin. Invest. 48, 2202 /1969/; J. T. Wilson: Pediatrics 43, 424 /1969/].
For screening the enzyme inducing activity the change in the hexobarbital-induced sleeping time is conventionally measured. The inducing activity of the compounds of the general formula (I) according to the invention was compared to the corresponding activity of phenobarbital and to their own sedative effect, using the following test methods.
Determination of the sleeping time induced by hexobarbital (measurement of enzyme inducing activity)
After (a) one hour and (b) after 24-hour pretreatment with a 40 mg./kg. p.o. dose of the test compounds, the groups of test animals were administered a 60 mg./kg. i.v. dose of hexobarbital.
(§1) As test animals CFLP male mice weighing […]. were used.

[2] = system: CFLP male mice; experiment: Potentiation of activity of sodium-barbital (measurement of the sedative activity); type: in vivo; conditions: for Number of the test animals fallen asleep in % of the control: 20 mg./kg. i.p., after one hour Na-barbital 100 mg./kg. i.p.
Method: Determination of the potentiation of activity of sodium-barbital (measurement of the sedative activity)
In the tests carried out [see S. Goldschmidt and R. Wohr: Z. physiol. Chem. 308, 9 /1957/; D. V. Parker: J. Pharm. Pharmac. 27, 729 /1975/] the test animals were pretreated with a 20 mg./kg. i.p. dose of the test compounds of the general formula (I) and after one hour were administered a 100 mg./kg. i.p. dose of Na-barbital.
as §1

[3] = Acute toxicity (p.o.); design: species or system CFLP male mice; conditions: mouse, in vivo, po, 14 days
Method: To the test animals 250 and 500 mg./kg. doses, resp. of the test compounds were administered orally and the number of the dead animals was registered for 14 days.
as §1

[4] = system: metabolysing enzyme system of the liver; conditions: diseases caused by defectiveness of the metabolysing enzyme system of the liver; cited from earlier work

For `C[C@@H]1C(=O)N(C)c2ccc(Cl)cc2[C@@H](c2ccccc2)N1C(N)=O` (relative stereo) [Example 5, 3RS,5RS-1,3-Dimethyl-4-carbamoyl-5-phenyl-7-chloro-1,3,4,5-tetrahydro-2H-1,4-benzodiazepin-2-one], the “Hexobarbital-sleeping time, 1-hour pretreatment, average ± SE” value ([1]; 1-hour pretreatment) was 37.3 ± 3.01 min, the “Hexobarbital-sleeping time, 1-hour pretreatment, Δ% (percentage change related to the control)” value ([1]; 1-hour pretreatment) was “+6%” and the “Hexobarbital-sleeping time, 24-hour pretreatment, Δ% (percentage change related to the control)” value [1] was -73%. The “Hexobarbital-sleeping time, 24-hour pretreatment, average ± SE” value [1] was 9 ± 0.43 min, the “Sleeping time 1 hour after administration, in words” value (“Sleeping time 1 hour” below) ([1]; 1-hour pretreatment) was “most favourable properties” and the “Number of the test animals fallen asleep in % of the control” value (from here on “Number … in % of the control”) [2] was 20%.
With `C[C@@H]1N[C@@H](c2ccccc2)c2cc(Cl)ccc2N(C)C1=O` [Example 1, 3S,5S-1,3-Dimethyl-5-phenyl-7-chloro-1,3,4,5-tetrahydro-2H-1,4-benzodiazepin-2-one] the “Hexobarbital-sleeping time, 1-hour pretreatment, average ± SE” value ([1]; 1-hour pretreatment) was 67.2 ± 7.01 min, the “Hexobarbital-sleeping time, 1-hour pretreatment, Δ% (percentage change related to the control)” value ([1]; 1-hour pretreatment) was “+91%” and the “Hexobarbital-sleeping time, 24-hour pretreatment, Δ% (percentage change related to the control)” value [1] was -43%. The “Hexobarbital-sleeping time, 24-hour pretreatment, average ± SE” value [1] was 19.5 ± 1.84 min and the “Number … in % of the control” value [2] was 50%.
For `C[C@H]1N[C@H](c2ccccc2)c2cc(Cl)ccc2N(C)C1=O` [Example 2, 3R,5R-1,3-Dimethyl-5-phenyl-7-chloro-1,3,4,5-tetrahydro-2H-1,4-benzodiazepin-2-one], the “Hexobarbital-sleeping time, 1-hour pretreatment, average ± SE” value ([1]; 1-hour pretreatment) was 61.2 ± 5.21 min, the “Hexobarbital-sleeping time, 1-hour pretreatment, Δ% (percentage change related to the control)” value ([1]; 1-hour pretreatment) was “+73%” and the “Hexobarbital-sleeping time, 24-hour pretreatment, Δ% (percentage change related to the control)” value [1] was -61%. For the same molecule, the “Hexobarbital-sleeping time, 24-hour pretreatment, average ± SE” value [1] was 13.3 ± 0.54 min and the “Number … in % of the control” value [2] was “.phi”.
With `C[C@H]1C(=O)N(C)c2ccc(Cl)cc2[C@H](c2ccccc2)N1C(N)=O` [Example 3, 3S,5S-1,3-Dimethyl-4-carbamoyl-5-phenyl-7-chloro-1,3,4,5-tetrahydro-2H-1,4-benzodiazepin-2-one] the “Hexobarbital-sleeping time, 1-hour pretreatment, average ± SE” value ([1]; 1-hour pretreatment) was 43.3 ± 4.18 min, the “Hexobarbital-sleeping time, 1-hour pretreatment, Δ% (percentage change related to the control)” value ([1]; 1-hour pretreatment) was “+23%” and the “Hexobarbital-sleeping time, 24-hour pretreatment, Δ% (percentage change related to the control)” value [1] was -65%. The “Hexobarbital-sleeping time, 24-hour pretreatment, average ± SE” value [1] was 12.0 ± 0.83 min, the “Sleeping time 1 hour” value ([1]; 1-hour pretreatment) was “most favourable properties” and the “Number … in % of the control” value [2] was 0%.
With `C[C@@H]1C(=O)N(C)c2ccc(Cl)cc2[C@@H](c2ccccc2)N1C(N)=O` [Example 4, 3R,5R-1,3-Dimethyl-4-carbamoyl-5-phenyl-7-chloro-1,3,4,5-tetrahydro-2H-1,4-benzodiazepin-2-one] the “Hexobarbital-sleeping time, 1-hour pretreatment, average ± SE” value ([1]; 1-hour pretreatment) was 43.3 ± 5.01 min, the “Hexobarbital-sleeping time, 1-hour pretreatment, Δ% (percentage change related to the control)” value ([1]; 1-hour pretreatment) was “+23%” and the “Hexobarbital-sleeping time, 24-hour pretreatment, Δ% (percentage change related to the control)” value [1] was -71%. The “Hexobarbital-sleeping time, 24-hour pretreatment, average ± SE” value [1] was 9.9 ± 0.62 min, the “Sleeping time 1 hour” value ([1]; 1-hour pretreatment) was “most favourable properties” and the “Number … in % of the control” value [2] was “.phi”.
In the case of `CCC1(CC)C(=O)NC(=O)NC1=O` [Na-barbital, sodium-barbital, reference compound], the “Narcotic effect of Na-barbital alone” value ([2]; 100 mg./kg. i.p. Na-barbital) was “no narcotic effect”.
In the case of `CCC1(c2ccccc2)C(=O)NC(=O)NC1=O` [Phenobarbital, reference compound], the “Hexobarbital-sleeping time, 1-hour pretreatment, average ± SE” value ([1]; 1-hour pretreatment) was 86.2 ± 7.51 min, the “Hexobarbital-sleeping time, 1-hour pretreatment, Δ% (percentage change related to the control)” value ([1]; 1-hour pretreatment) was “+145%” and the “Hexobarbital-sleeping time, 24-hour pretreatment, Δ% (percentage change related to the control)” value [1] was -69%. The “Hexobarbital-sleeping time, 24-hour pretreatment, average ± SE” value [1] was 11.2 ± 0.35 min, the “Increase of sleeping time relative to its original value” ([1]; 1-hour pretreatment) was ~3 times and the “Number … in % of the control” value [2] was 60%. The LD50 at 336 h [3] was 191 mg/kg and the “Inducing activity in human diseases, in words” value [4] was “shows an inducing activity in the case of human diseases”.
